Data on eight substances can be found in patent US20230263822A1, “MODULATION OF FACTOR 11 EXPRESSION” (Ionis Pharmaceuticals, Inc., priority 2008, published 2023).

Strand notation (5' to 3'): a small letter for the sugar, then the base; units joined by * are phosphorothioate-linked, units joined directly phosphodiester-linked; [ ] holds rarer units or linkages, { } end groups; capitals alone tell only the bases. e = 2'-O-(2-methoxyethyl) (MOE); [5mC] = 5-methylcytosine; d = 2'-deoxy (DNA)

One data set relates to human Factor 11 mRNA. The data set is described as follows: Dose-dependent inhibition of human Factor 11 in cyano primary hepatocytes, electroporation (Example 6). The data set is classed as cell-based. As to conditions: ~16 hours. On the procedure:
Cells were plated at a density of 35,000 cells per well and transfected via electroporation with 0.74 nM, 2.2 nM, 6.7 nM, 20 nM, 60 nM, and 180 nM concentrations of antisense oligonucleotide, as specified in Table 13. After a treatment period of approximately 16 hours, RNA was isolated from the cells and human Factor 11 mRNA levels were measured by quantitative real-time PCR. Human Factor 11 primer probe set RTS 2966 was used to measure mRNA levels. Factor 11 mRNA levels were adjusted according to total RNA content, as measured by RIBOGREEN. Results are presented as percent inhibition of human Factor 11, relative to untreated control cells.

In another data set the test system is blood coagulation. The data set is described as follows: PT and aPTT assay in cynomolgus monkeys (Example 46). Type of data set: in vivo. As to conditions: for PT ratio (INR) / aPTT ratio relative to PBS group: platelet poor plasma, relative to PBS group; for aPTT: cynomolgus monkeys, 25 mg/kg. On the procedure: Groups, each consisting of two male and two female monkeys, were injected subcutaneously with 25 mg/kg of ISIS 416850, ISIS 449709, ISIS 445522, ISIS 449710, ISIS 449707, ISIS 449711, ISIS 449708, 416858, and ISIS 445531. Antisense oligonucleotide was administered to the monkeys at 25 mg/kg three times per week for week 1 and 25 mg/kg twice per week for weeks 2 to 8. A control group, consisting of two male and two female monkeys was injected subcutaneously with PBS according to the same dosing regimen. Body weights were taken 14 days and 7 days before the start of treatment and were then measured weekly throughout the treatment period. Blood samples were collected 14 days and 5 days before the start of treatment and subsequently several times during the dosing regimen for PT and aPTT measurements, and measurement of various hematologic factors. On day 55, the monkeys were euthanized by exsanguination while under deep anesthesia, and organs harvested for further analysis.
PT and aPTT were measured using platelet poor plasma (PPP) from […] treated with ISIS oligonucleotides. PT and aPTT values are provided in Tables 148 and 149 and are reported as International Normalized Ratio (INR) values. INR values for PT and aPTT were determined by dividing the PT or aPTT value for each experimental group by the PT or aPTT for the PBS treated group. This ratio was then raised to the power of the International Sensitivity Index (ISI) of the tissue factor used. […] Therefore, antisense reduction of Factor 11 with these ISIS oligonucleotides is useful for inhibiting the formation of a thrombus or clot in response to an abnormal vessel wall, but not in response to tissue injury.

The conditions of data set [1]: mouse, in vivo, sc, 50 mg/kg.

On to “416825 (antisense GCCCTTCATGTCTAGGTCCA; 5-10-5 gapmer, further chemistry not given here) [compound 416825]”, for which the “percent inhibition of human Factor 11 mRNA relative to untreated control cells” value in the data set with human Factor 11 mRNA (0.74 nM) is on record as 5%; with human Factor 11 mRNA (2.2 nM) it was 22%; in the data set on human Factor 11 mRNA (6.7 nM) it was 51%; with human Factor 11 mRNA (20 nM) it was 61%; in the data set on human Factor 11 mRNA (60 nM) it was 77%; with human Factor 11 mRNA (180 nM), 84%.
On to “416826 (antisense ATGCCCTTCATGTCTAGGTC; 5-10-5 gapmer, further chemistry not given here) [compound 416826]”, for which the “percent inhibition of human Factor 11 mRNA relative to untreated control cells” value in the data set with human Factor 11 mRNA (0.74 nM) is listed as 13%; in the data set with human Factor 11 mRNA (2.2 nM) it was 24%; in the data set on human Factor 11 mRNA (6.7 nM) it was 34%; with human Factor 11 mRNA (20 nM) it was 67%; with human Factor 11 mRNA (60 nM), 69%; in the data set with human Factor 11 mRNA (180 nM) it was 71%.
Consider “416892 (antisense GCCCTTCATGTCTAGGTCCA; 3-14-3 chimeric gapmer, further chemistry not given here) [compound 416892]”, for which the “percent inhibition of human Factor 11 mRNA relative to untreated control cells” value worked out at 20% in the data set on human Factor 11 mRNA (0.74 nM); 20% in the data set on human Factor 11 mRNA (2.2 nM); 43% with human Factor 11 mRNA (6.7 nM); 62% with human Factor 11 mRNA (20 nM); 88% in the data set on human Factor 11 mRNA (60 nM); 92% in the data set with human Factor 11 mRNA (180 nM).
In the case of “ISIS 416850: MOE gapmer, nucleobases 1275 to 1318 of SEQ ID NO: 1 (Table 8) (antisense TGCACAGTTTCTGGCAGGCC; MOE gapmer, wing and gap sizes not given here)”, the “PT ratio (INR)” value with blood coagulation (Day 10) was 0.99; in the data set on blood coagulation (Day 17), 1.00; with blood coagulation (Day 24), 0.97; with blood coagulation (Day 31), 1.00; in the data set on blood coagulation (Day 38), 1.01; in the data set with blood coagulation (Day 45) it was 1.00. Further, the “PT ratio (INR)” value worked out at 1.02 in the data set with blood coagulation (Day 52), 1.07 with blood coagulation (Day 55), 1.00 in the data set with blood coagulation (Day −5) and 1.02 in the data set with blood coagulation (Day −14). In addition, the “aPTT ratio relative to PBS group” value in the data set on blood coagulation (Day 10) is 0.98; with blood coagulation (Day 17) it was 1.01; with blood coagulation (Day 24), 1.05; in the data set with blood coagulation (Day 31), 1.22; with blood coagulation (Day 38) it was 1.25; in the data set on blood coagulation (Day 45) it was 1.34. The “aPTT ratio relative to PBS group” value in the data set with blood coagulation (Day 52) turned out to be 1.32; in the data set with blood coagulation (Day 55), 1.45; in the data set on blood coagulation (Day −5), 0.90; with blood coagulation (Day −14), 0.99. In the data set with blood coagulation, the “aPTT” value is reported as “significantly prolonged”. The HCT in data set [1] came out at 49%. Besides, the Lymphocyte in data set [1] is listed as 4004 cells/μL. In data set [1], this substance showed a Neutrophil of 1144 cells/μL. For the same substance, the Platelets in data set [1] is on record as 916 10^3/μL. The RBC in data set [1] is recorded as 10 10^6/μL. For the same substance, in data set [1], the WBC is 5 10^3/μL. In data set [1], this substance returned a hemoglobin of 15 g/dL. In data set [1], the monocytes is on record as 156 cells/μL.
On to “ISIS 416858: MOE gapmer, nucleobases 1275 to 1318 of SEQ ID NO: 1 (Table 8) (antisense ACGGCATTGGTGCACAGTTT; MOE gapmer, wing and gap sizes not given here)”, for which the “PT ratio (INR)” value in the data set on blood coagulation (Day 10) stood at 0.96; with blood coagulation (Day 17), 0.98; with blood coagulation (Day 24), 0.95; in the data set with blood coagulation (Day 31), 1.00; in the data set on blood coagulation (Day 38), 0.97; with blood coagulation (Day 45), 1.00. In addition, the “PT ratio (INR)” value with blood coagulation (Day 52) was 0.99; with blood coagulation (Day 55), 1.01; with blood coagulation (Day −5), 0.96; in the data set with blood coagulation (Day −14), 1.01. For the same substance, the “aPTT ratio relative to PBS group” value in the data set with blood coagulation (Day 10) worked out at 1.07; with blood coagulation (Day 17) it was 1.13; in the data set on blood coagulation (Day 24), 1.21; in the data set with blood coagulation (Day 31), 1.32; with blood coagulation (Day 38), 1.41; in the data set on blood coagulation (Day 45), 1.49. Moreover, the “aPTT ratio relative to PBS group” value with blood coagulation (Day 52) is given as 1.53; with blood coagulation (Day 55), 1.61; with blood coagulation (Day −5), 0.96; with blood coagulation (Day −14), 1.03. Besides, in the data set with blood coagulation, the “aPTT” value is recorded as “significantly prolonged”. In data set [1], this substance registered an HCT of 50%. The same substance came in with a Lymphocyte in data set [1] of 5480 cells/μL. This substance came in with a Neutrophil in data set [1] of 2229 cells/μL. The Platelets in data set [1] is on record as 782 10^3/μL. In addition, the RBC in data set [1] is listed as 9 10^6/μL. Also, the WBC in data set [1] is given as 8 10^3/μL. In data set [1], this substance yielded a hemoglobin of 14 g/dL. In data set [1], this substance came in with a monocytes of 248 cells/μL.
Turning to “ISIS 416864: MOE gapmer, nucleobases 1275 to 1318 of SEQ ID NO: 1 (Table 8) (antisense GGCAGCGGACGGCATTGGTG; MOE gapmer, wing and gap sizes not given here)”, in data set [1], the HCT worked out at 52%, the Lymphocyte is listed as 3921 cells/μL, the Neutrophil was found to be 973 cells/μL and the Platelets is reported as 750 10^3/μL. For the same substance, in data set [1], the RBC is recorded as 10 10^6/μL, the WBC was 5 10^3/μL, the hemoglobin was 15 g/dL and the monocytes was 141 cells/μL.
“ISIS 445522: 5-8-5 or 6-8-6 MOE microwalk gapmer (Table 44) (antisense eG*e[5mC]*eA*e[5mC]*eA*dG*dT*dT*dT*d[5mC]*dT*dG*dG*e[5mC]*eA*eG*eG*e[5mC])”: the “PT ratio (INR)” value with blood coagulation (Day 10) was 0.95; in the data set with blood coagulation (Day 17), 0.96; in the data set with blood coagulation (Day 24), 0.94; in the data set on blood coagulation (Day 31), 0.96; with blood coagulation (Day 38), 0.97; in the data set with blood coagulation (Day 45) it was 0.96. In addition, the “PT ratio (INR)” value with blood coagulation (Day 52) is 0.98; with blood coagulation (Day 55), 1.01; in the data set on blood coagulation (Day −5), 0.94; in the data set with blood coagulation (Day −14), 1.00. For the same substance, the “aPTT ratio relative to PBS group” value amounted to 1.06 with blood coagulation (Day 10); 1.10 in the data set on blood coagulation (Day 17); 1.14 in the data set on blood coagulation (Day 24); 1.25 with blood coagulation (Day 31); 1.32 with blood coagulation (Day 38); 1.39 in the data set with blood coagulation (Day 45). The “aPTT ratio relative to PBS group” value turned out to be 1.39 in the data set on blood coagulation (Day 52), 1.42 in the data set with blood coagulation (Day 55), 0.91 with blood coagulation (Day −5) and 0.96 in the data set on blood coagulation (Day −14). For the same substance, the “aPTT” value with blood coagulation was “significantly prolonged”.
Regarding “ISIS 445531: 5-8-5 or 6-8-6 MOE microwalk gapmer (Table 44) (antisense eG*eG*e[5mC]*eA*eT*dT*dG*dG*dT*dG*d[5mC]*dA*d[5mC]*eA*eG*eT*eT*eT)”, the “PT ratio (INR)” value in the data set on blood coagulation (Day 10) is 1.00; in the data set with blood coagulation (Day 17) it was 1.06; in the data set with blood coagulation (Day 24), 1.02; in the data set on blood coagulation (Day 31), 1.04; in the data set on blood coagulation (Day 38), 1.03; in the data set on blood coagulation (Day 45), 1.01. The “PT ratio (INR)” value in the data set with blood coagulation (Day 52) was found to be 1.04; in the data set on blood coagulation (Day 55), 1.06; with blood coagulation (Day −5), 1.00; with blood coagulation (Day −14), 1.06. The “aPTT ratio relative to PBS group” value in the data set with blood coagulation (Day 10) is 0.95; in the data set on blood coagulation (Day 17), 1.05; with blood coagulation (Day 24) it was 1.00; in the data set on blood coagulation (Day 31), 1.07; in the data set with blood coagulation (Day 38), 1.06; in the data set with blood coagulation (Day 45), 1.13. Moreover, the “aPTT ratio relative to PBS group” value was 1.15 with blood coagulation (Day 52), 1.19 in the data set with blood coagulation (Day 55), 0.89 in the data set with blood coagulation (Day −5) and 1.00 in the data set with blood coagulation (Day −14).
